Like-named read-outs stand apart in the source and are kept apart here.
Assays:
[1] = target: 3′-TAMRA-labeled MycG4 DNA; experiment: Fluorescence binding assay; settings: 20° C., 100 mM K+ buffer, pH 7.0; read-out: Apparent Binding Affinity Kd, app
Procedure: Binding Affinity to the Myc G-Quadruplex. Binding affinity of eight 7-aza-8,9-methylenedioxyindenoisoquinolines to MycG4 was determined using a fluorescence binding assay with a 3′-TAMRA-labeled MycG4 DNA. Monitoring TAMRA emission upon drug titration afforded binding isotherms, from which apparent binding affinities, Kd,app, were derived.
Fluorescence-Based Binding Assays. Fluorescence-based binding assays were performed on a Jasco FP-8300 spectrofluorometer equipped with a temperature controller at 20° C. in a quartz cuvette with a 10 mm path length. 3′-TAMRA-labeled MycG4 DNA (Sigma-Aldrich) was diluted to 20 nM using a 75 mM KCl/25 mM potassium phosphate buffer, pH 7.0. […] Fluorescence intensity at 580 nm, the maximum for the free DNA, was plotted against drug:DNA ratio. The apparent binding dissociation constant, Kd,app, was derived for the binding of each compound. Using OriginPro software (OriginLab Corp., United States) the change in fluorescence intensity was fitted to a one-site binding equation,
where B0 is the initial fluorescence intensity, B is maximum change in fluorescence intensity, R is DNA concentration, and L is drug:DNA ratio.

[2] = test system: RAJI lymphoma cells; experiment: MTS cell viability IC50 assay; assay type: cell-based; settings: 72 h
Procedure: Cytotoxicity Results in Raji Non-Hodgkin's Lymphoma Cells. MTS experiments were then conducted to test the anti-proliferative effects of 7-aza-8,9-methylenedioxyindenoisoquinolines in Raji cells. Cells were incubated at 2-2000 nM of each drug for 72 h, and cell viabilities were quantified using the MTS assay. […] This potency trend generally correlated with the western blot results, in which G106 and G108 […] show weaker Myc downregulation.
(§1) MTS Cell Viability IC50 Assay. Drug solutions for MTS IC50 assays of suspension cell lines were made from DMSO stocks by serial-dilutions in 1×PBS (10010-031, Gibco). To set up treatments, drug solutions were plated in triplicates to 96-well tissue culture plates, to which cell-containing media was added to a total volume of 100 μL/well. 100%-viability controls were untreated cells. 2000 cells/well were plated for all suspension cell lines except 3000 cells/well for KMS-27 and 10000 cells/well for CHLA-32. Blanks were cell-free media. Drug treatments were maintained for 72 hr at 37° C. with 5% CO2. To quantify cells, CellTiter 96 AQueous MTS Reagent Powder (G1111, Promega) was dissolved and mixed with phenazine methosulfate (PMS, Sigma-Aldrich P9625) according to manufacturer's instructions. MTS/PMS mix ([…]) was added to treatment wells, 100%-viability control wells, and blank wells. Colors were developed at 37° C. with 5% CO2 for 4 h and absorbance at 490 nm was measured by BioTek Synergy 4 system. To obtain %-viability, A490 values were corrected by blank subtraction, normalized to 100%-viability control, and averaged. Average %-viabilities were plotted against drug dosages to obtain dose-response curves. […] For adherent cell lines, the MTS IC50 assays were conducted the same way as for suspension cell lines except for cell plating and drug treatment. For cell plating, 50 μL of 2000 cells were plated in triplicates to a 96-well tissue culture plate. Cells were allowed sufficient time to become adherent. Serial-diluted drug solutions were made the same way as in the MTS IC50 assays. To set up treatments, drug solutions were mixed with media to two-fold of the final concentrations, and 50 μL of such drug-media mix was then added to 50 μL of plated cells.

[3] = test system: SF-539 (CNS); experiment: NCI-60 cytotoxicity assay; assay type: cell-based; settings: Homo sapiens; SF-539 CNS; 48 h, sulforhodamine B; read-out: Comparative Cytotoxicity GI50, CNS SF-539
Procedure: (§2) The antiproliferative activities of the indenoisquinoline compounds are determined in the NCI-60 cancer cell lines of the National Cancer Institute Developmental Therapeutics Program (NCI-DTP). […] Cancer cells are incubated with the test compounds at five concentrations ranging from 100 μM to 10 nM for 48 h. After the treated cancer cells are stained with sulforhodamine B dye, the percentage growth is plotted as a function of the common logarithm of the tested compound concentration. […] The approximate average of GI50 values across the entire panel of NCI-60 cancer cell lines for each compound is recorded as the MGM value.
(§3) NCI-60 Cytotoxicity Assay. Compounds were submitted to the National Cancer Institute Developmental Therapeutic Program to determine their growth-inhibitory potentials in NCI-60 cell lines. All compounds satisfied the pre-screening proceeded into the 5-dose cell viability assay, in which cells were treated for 48 h at 5 dosages ranging from 100 μM to 10 nM.

[4] = test system: NCI-60 cancer cell lines; experiment: NCI-60 cytotoxicity assay, MGM; assay type: cell-based; settings: Homo sapiens; entire panel of NCI-60 cancer cell lines; read-out: MGM (approximate average of GI50 values across the NCI-60 panel)
Procedure: as §2, §3

[5] = test system: DU-145 (Prostate); experiment: NCI-60 cytotoxicity assay; assay type: cell-based, human; settings: Homo sapiens; DU-145 prostate; 48 h, sulforhodamine B; read-out: Comparative Cytotoxicity GI50, Prostate DU-145
Procedure: as §2, §3

[6] = test system: UACC-62 (Melanoma); experiment: NCI-60 cytotoxicity assay; assay type: cell-based, human; settings: Homo sapiens; UACC-62 melanoma; 48 h, sulforhodamine B; read-out: Comparative Cytotoxicity GI50, Melanoma UACC-62
Procedure: as §2, §3

[7] = test system: HCT-116 (Colon); experiment: NCI-60 cytotoxicity assay; assay type: cell-based, human; settings: Homo sapiens; HCT-116 colon; 48 h, sulforhodamine B; read-out: Comparative Cytotoxicity GI50, Colon HCT-116
Procedure: as §2, §3

[8] = test system: OVCAR-3 (Ovarian); experiment: NCI-60 cytotoxicity assay; assay type: cell-based, human; settings: Homo sapiens; OVCAR-3 ovarian; 48 h, sulforhodamine B; read-out: Comparative Cytotoxicity GI50, Ovarian OVCAR-3
Procedure: as §2, §3

[9] = test system: SN12C (Renal); experiment: NCI-60 cytotoxicity assay; assay type: cell-based, human; settings: Homo sapiens; SN12C renal; 48 h, sulforhodamine B; read-out: Comparative Cytotoxicity GI50, Renal SN12C
Procedure: as §2, §3

[10] = test system: HOP-62 (Lung); experiment: NCI-60 cytotoxicity assay; assay type: cell-based, human; settings: Homo sapiens; HOP-62 lung; 48 h, sulforhodamine B; read-out: Comparative Cytotoxicity GI50, Lung HOP-62
Procedure: as §2, §3

[11] = test system: MCF7 (Breast); experiment: NCI-60 cytotoxicity assay; assay type: cell-based, human; settings: Homo sapiens; MCF7 breast; 48 h, sulforhodamine B; read-out: Comparative Cytotoxicity GI50, Breast MCE7
Procedure: as §2, §3

[12] = test system: MCF-7; experiment: MTS GI50, Myc-dependent panel; assay type: cell-based; settings: Homo sapiens
Procedure: (§4) Cytotoxicity Results in Myc-dependent Cancer Cell Lines.
as §1

[13] = test system: L-363; experiment: MTS GI50, Myc-dependent panel; assay type: cell-based; settings: Homo sapiens, L-363, 72 h
Procedure: as §4, §1

[14] = test system: RPMI-8226; experiment: MTS GI50, Myc-dependent panel; assay type: cell-based; settings: Homo sapiens, RPMI-8226, 72 h
Procedure: as §4, §1

[15] = test system: HL-60; experiment: MTS GI50, Myc-dependent panel; assay type: cell-based; settings: Homo sapiens, HL-60, 72 h
Procedure: as §4, §1

[16] = test system: Kasumi-1; experiment: MTS GI50, Myc-dependent panel; assay type: cell-based; settings: Homo sapiens
Procedure: as §4, §1

[17] = test system: RS4;11; experiment: MTS GI50, Myc-dependent panel; assay type: cell-based; settings: Homo sapiens
Procedure: as §4, §1

[18] = test system: MDA-MB-231; experiment: MTS GI50, Myc-dependent panel; assay type: cell-based; settings: Homo sapiens, MDA-MB-231, 72 h
Procedure: as §4, §1

[19] = test system: CHLA-32; experiment: MTS GI50, Myc-dependent panel; assay type: cell-based
Procedure: as §4, §1

[20] = test system: CHLA-99; experiment: MTS GI50, Myc-dependent panel; assay type: cell-based
Procedure: as §4, §1

[21] = test system: MOLT-4; experiment: MTS GI50, Myc-dependent panel; assay type: cell-based; settings: Homo sapiens, MOLT-4, 72 h
Procedure: as §4, §1

[22] = test system: SK-N-MC; experiment: MTS GI50, Myc-dependent panel; assay type: cell-based; settings: Homo sapiens, 72 h
Procedure: as §4, §1

[23] = test system: AMO-1; experiment: MTS GI50, Myc-dependent panel; assay type: cell-based; settings: Homo sapiens
Procedure: as §4, §1

[24] = test system: RD-ES; experiment: MTS GI50, Myc-dependent panel; assay type: cell-based; settings: 72 h
Procedure: as §4, §1

[25] = test system: ARD; experiment: MTS GI50, Myc-dependent panel; assay type: cell-based; settings: 72 h
Procedure: as §4, §1

[26] = test system: TC-106; experiment: MTS GI50, Myc-dependent panel; assay type: cell-based
Procedure: as §4, §1

[27] = test system: KMS-27; experiment: MTS GI50, Myc-dependent panel; assay type: cell-based; settings: KMS-27, 72 h
Procedure: as §4, §1

[28] = test system: THP-1; experiment: MTS GI50, Myc-dependent panel; assay type: cell-based; settings: Homo sapiens, THP-1, 72 h
Procedure: as §4, §1

[29] = test system: TC-71; experiment: MTS GI50, Myc-dependent panel; assay type: cell-based; settings: TC-71, 72 h
Procedure: as §4, §1

[30] = test system: TC-32; experiment: MTS GI50, Myc-dependent panel; assay type: cell-based; settings: Homo sapiens, TC-32, 72 h
Procedure: as §4, §1

[31] = test system: CCRF-CRM; experiment: MTS GI50, Myc-dependent panel; assay type: cell-based; settings: 72 h
Procedure: as §4, §1

[32] = test system: K-562; experiment: MTS GI50, Myc-dependent panel; assay type: cell-based; settings: Homo sapiens
Procedure: as §4, §1

## COc1cc2c3c(n(CCCN4CCC[C@H]4C(N)=O)c(=O)c2cc1OC)-c1nc2c(cc1C3=O)OCO2 [G106, (S)-1-(3-(2,3-dimethoxy-5,12-dioxo-5,12-dihydro-6H-[1,3]dioxolo [4″,5″:5′,6′]pyrido[3′,2′:4,5]cyclopenta[1,2-c]isoquinolin-6-yl)propyl)pyrrolidine-2-carboxamide]
[1]
  Kd: 55 nM
[2]; RAJI
  IC50: 1980 nM

## COc1cnc2c(c1)C(=O)c1c-2n(CCCNCC2CC2)c(=O)c2cc(OC)c(OC)cc12 [A10]
[3]
  GI50: 1000 nM
[4]
  GI50: 860 nM
[5]
  GI50: 960 nM
[6]
  GI50: 840 nM
[7]
  GI50: 400 nM
[8]
  GI50: 1820 nM
[9]
  GI50: 440 nM
[10]
  GI50: 670 nM
[11]
  GI50: 160 nM

## COc1cc2c3c(n(CCCNCCO)c(=O)c2cc1OC)-c1cc2c(cc1C3=O)OCO2 [LMP517]
[1]
  Kd: 109 nM
[12]; MCF7, 72 h
  GI50: 418 nM
[13]
  GI50: 42 nM
[14]
  GI50: 82 nM
[15]
  GI50: 137 nM
[16]; Kasumi 1, 72 h
  GI50: 148 nM
[17]; RS4-11, 72 h
  GI50: 7 nM
[18]
  GI50: 319 nM
[19]; 72 h
  GI50: 37 nM
[20]; 72 h
  GI50: 44 nM
[21]
  GI50: 3 nM
[22]
  GI50: 62 nM
[23]; AMO1, 72 h
  GI50: 69 nM
[24]
  GI50: 9 nM
[25]
  GI50: 27 nM
[26]; 72 h
  GI50: 51 nM
[27]
  GI50: 44 nM
[28]
  GI50: 93 nM
[29]
  GI50: 58 nM
[30]
  GI50: 12 nM
[31]
  GI50: 11 nM
[32]; K562, 72 h
  GI50: 74 nM
[2]; Homo sapiens, Raji
  IC50: 53 nM

## CC[C@@]1(O)C(=O)OCc2c1cc1n(c2=O)Cc2cc3ccccc3nc2-1 [CPT, Camptothecin]
[12]; MCF7, MCF-7, 72 h, read-out: GI50
  GI50: 200 nM
[13]; read-out: GI50
  GI50: 10 nM
[14]; read-out: GI50
  GI50: 14 nM
[15]; read-out: GI50
  GI50: 27 nM
[16]; Kasumi-1, 72 h, read-out: GI50
  GI50: 85 nM
[17]; RS4;11, 72 h, read-out: GI50
  GI50: 6 nM
[18]; read-out: GI50
  GI50: 37 nM
[19]; CHLA-32, 72 h, read-out: GI50
  GI50: 6 nM
[20]; CHLA-99, 72 h, read-out: GI50
  GI50: 4 nM
[21]; read-out: GI50
  GI50: < 2 nM
[22]; read-out: GI50
  GI50: 9 nM
[23]; AMO1, AMO-1, 72 h, read-out: GI50
  GI50: 20 nM
[24]; read-out: GI50
  GI50: 5 nM
[25]; ARD, read-out: GI50
  GI50: 11 nM
[26]; TC-106, 72 h, read-out: GI50
  GI50: 11 nM
[27]; read-out: GI50
  GI50: 13 nM
[28]; read-out: GI50
  GI50: 55 nM
[29]; read-out: GI50
  GI50: 8 nM
[30]; read-out: GI50
  GI50: 7 nM
[31]; CCRF-CRM, read-out: GI50
  GI50: 4 nM
[32]; K562, K-562, 72 h, read-out: GI50
  GI50: 22 nM

Source: patent US20240287089A1, “Preparation and Uses of 7-Azaindenoisoquinolines” (Purdue Research Foundation, priority 0001, published 2024)
